Laboratory results: ChEMBL document CHEMBL4507297, “Data for DCP probe PF-04457845” (2021)

What was measured:
[1] = target: Ribosomal protein S6 kinase alpha-3 (Homo sapiens) (UniProt P51812); conditions: Compound concentration 1000.0 nM
[2] = target: Serine/threonine-protein kinase MAK (Homo sapiens) (UniProt P20794); conditions: Compound concentration 1000.0 nM
[3] = test system: Epidermal growth factor receptor (Homo sapiens), P00533 [UNDEFINED MUTATION]; conditions: Compound concentration 1000.0 nM
[4] = target: Serine/threonine-protein kinase Nek4 (Homo sapiens) (UniProt P51957); conditions: Compound concentration 1000.0 nM
[5] = test system: Proto-oncogene tyrosine-protein kinase receptor Ret (Homo sapiens), P07949 [V804M]; conditions: Compound concentration 1000.0 nM
[6] = target: Mitogen-activated protein kinase 9 (Homo sapiens) (UniProt P45984); conditions: Compound concentration 1000.0 nM
[7] = target: G protein-coupled receptor kinase 4 (Homo sapiens) (UniProt P32298); conditions: Compound concentration 1000.0 nM
[8] = target: Beta-1 adrenergic receptor (Homo sapiens) (UniProt P08588); conditions: Compound concentration 10.0 uM
[9] = test system: Phosphatidylinositol 4,5-bisphosphate 3-kinase catalytic subunit alpha isoform (Homo sapiens), P42336 [E545A]; conditions: Compound concentration 1000.0 nM
[10] = target: Vascular endothelial growth factor receptor 1 (Homo sapiens) (UniProt P17948); conditions: Compound concentration 1000.0 nM
Sequence of Vascular endothelial growth factor receptor 1 (Homo sapiens) (P17948 whole entry): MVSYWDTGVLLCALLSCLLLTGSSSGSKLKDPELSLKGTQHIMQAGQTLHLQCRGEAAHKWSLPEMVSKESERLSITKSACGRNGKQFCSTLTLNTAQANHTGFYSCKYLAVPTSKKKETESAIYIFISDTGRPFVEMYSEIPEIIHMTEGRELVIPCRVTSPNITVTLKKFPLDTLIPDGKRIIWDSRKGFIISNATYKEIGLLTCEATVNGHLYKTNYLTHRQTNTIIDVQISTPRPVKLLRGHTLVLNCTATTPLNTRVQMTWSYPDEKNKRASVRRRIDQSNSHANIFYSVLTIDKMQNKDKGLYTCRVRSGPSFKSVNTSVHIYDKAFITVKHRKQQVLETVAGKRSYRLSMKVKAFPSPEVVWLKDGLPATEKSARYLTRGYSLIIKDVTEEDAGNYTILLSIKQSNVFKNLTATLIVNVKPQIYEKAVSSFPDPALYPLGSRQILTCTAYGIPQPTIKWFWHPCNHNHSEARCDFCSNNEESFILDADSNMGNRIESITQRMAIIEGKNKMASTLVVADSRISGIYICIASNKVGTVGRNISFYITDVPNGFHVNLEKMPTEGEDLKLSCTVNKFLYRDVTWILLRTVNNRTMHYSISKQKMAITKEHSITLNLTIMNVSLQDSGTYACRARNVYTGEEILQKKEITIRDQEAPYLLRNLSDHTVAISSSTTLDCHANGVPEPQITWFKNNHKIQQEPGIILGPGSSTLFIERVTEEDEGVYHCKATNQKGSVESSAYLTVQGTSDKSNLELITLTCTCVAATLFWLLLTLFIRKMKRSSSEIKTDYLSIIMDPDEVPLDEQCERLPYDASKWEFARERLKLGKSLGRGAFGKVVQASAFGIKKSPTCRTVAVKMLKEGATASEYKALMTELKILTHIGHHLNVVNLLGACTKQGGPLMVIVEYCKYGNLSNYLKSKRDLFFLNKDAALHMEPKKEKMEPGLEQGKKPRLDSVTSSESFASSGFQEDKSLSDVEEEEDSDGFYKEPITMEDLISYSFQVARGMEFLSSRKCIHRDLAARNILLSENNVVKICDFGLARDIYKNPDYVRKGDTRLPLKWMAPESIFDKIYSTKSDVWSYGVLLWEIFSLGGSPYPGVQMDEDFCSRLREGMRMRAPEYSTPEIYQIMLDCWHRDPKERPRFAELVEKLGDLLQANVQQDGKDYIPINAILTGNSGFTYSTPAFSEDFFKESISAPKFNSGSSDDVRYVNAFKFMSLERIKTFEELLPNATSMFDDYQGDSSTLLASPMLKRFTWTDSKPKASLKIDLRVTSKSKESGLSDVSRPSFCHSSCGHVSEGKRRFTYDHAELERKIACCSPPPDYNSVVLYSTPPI

[11] = target: Tyrosine-protein kinase ABL1 (Homo sapiens) (UniProt P00519); conditions: Compound concentration 1000.0 nM
[12] = target: Homeodomain-interacting protein kinase 1 (Homo sapiens) (UniProt Q86Z02); conditions: Compound concentration 1000.0 nM
[13] = target: Receptor tyrosine-protein kinase erbB-3 (Homo sapiens) (UniProt P21860); conditions: Compound concentration 1000.0 nM
[14] = target: 5-hydroxytryptamine receptor 2B (Homo sapiens, UniProt P41595); conditions: Compound concentration 10.0 uM
[15] = target: RAC-gamma serine/threonine-protein kinase (Homo sapiens) (UniProt Q9Y243); conditions: Compound concentration 1000.0 nM
[16] = target: Alpha-1B adrenergic receptor (Homo sapiens) (UniProt P35368); conditions: Compound concentration 10.0 uM
[17] = target: Tyrosine-protein kinase JAK1 (Homo sapiens) (UniProt P23458); conditions: Compound concentration 1000.0 nM
[18] = target: Testis-specific serine/threonine-protein kinase 1 (Homo sapiens) (UniProt Q9BXA7); conditions: Compound concentration 1000.0 nM
[19] = target: Serine/threonine-protein kinase Chk1 (Homo sapiens) (UniProt O14757); conditions: Compound concentration 1000.0 nM
[20] = target: Tyrosine-protein kinase Yes (Homo sapiens) (UniProt P07947); conditions: Compound concentration 1000.0 nM
[21] = target: Cyclin-dependent kinase 4 (Homo sapiens) (UniProt P11802); conditions: Compound concentration 1000.0 nM
Sequence of Cyclin-dependent kinase 4 (Homo sapiens) (P11802 whole entry): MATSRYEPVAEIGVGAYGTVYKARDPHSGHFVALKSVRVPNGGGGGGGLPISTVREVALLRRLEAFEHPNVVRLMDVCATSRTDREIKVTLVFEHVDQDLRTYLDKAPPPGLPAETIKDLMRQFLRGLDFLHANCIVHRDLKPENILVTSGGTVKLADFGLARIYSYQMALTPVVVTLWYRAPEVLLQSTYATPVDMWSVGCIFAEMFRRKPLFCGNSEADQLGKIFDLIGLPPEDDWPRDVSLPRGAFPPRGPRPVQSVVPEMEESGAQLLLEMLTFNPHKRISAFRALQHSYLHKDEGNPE

[22] = target: Cyclin-dependent kinase 5 (Homo sapiens) (UniProt Q00535); conditions: Compound concentration 1000.0 nM
[23] = target: Serine/threonine-protein kinase Sgk2 (Homo sapiens) (UniProt Q9HBY8); conditions: Compound concentration 1000.0 nM
[24] = target: GABA-A receptor; anion channel (Rattus norvegicus) (UniProt O09028+P15431+P18506+P18508+P19969+P20236+P23574+P23576+P28471+P28473+P30191+P62813+P63079+P63138+Q91ZM7+Q9ES14); conditions: Compound concentration 10.0 uM
[25] = target: Tyrosine-protein kinase ZAP-70 (Homo sapiens) (UniProt P43403); conditions: Compound concentration 1000.0 nM
Sequence of Tyrosine-protein kinase ZAP-70 (Homo sapiens) (P43403 whole entry): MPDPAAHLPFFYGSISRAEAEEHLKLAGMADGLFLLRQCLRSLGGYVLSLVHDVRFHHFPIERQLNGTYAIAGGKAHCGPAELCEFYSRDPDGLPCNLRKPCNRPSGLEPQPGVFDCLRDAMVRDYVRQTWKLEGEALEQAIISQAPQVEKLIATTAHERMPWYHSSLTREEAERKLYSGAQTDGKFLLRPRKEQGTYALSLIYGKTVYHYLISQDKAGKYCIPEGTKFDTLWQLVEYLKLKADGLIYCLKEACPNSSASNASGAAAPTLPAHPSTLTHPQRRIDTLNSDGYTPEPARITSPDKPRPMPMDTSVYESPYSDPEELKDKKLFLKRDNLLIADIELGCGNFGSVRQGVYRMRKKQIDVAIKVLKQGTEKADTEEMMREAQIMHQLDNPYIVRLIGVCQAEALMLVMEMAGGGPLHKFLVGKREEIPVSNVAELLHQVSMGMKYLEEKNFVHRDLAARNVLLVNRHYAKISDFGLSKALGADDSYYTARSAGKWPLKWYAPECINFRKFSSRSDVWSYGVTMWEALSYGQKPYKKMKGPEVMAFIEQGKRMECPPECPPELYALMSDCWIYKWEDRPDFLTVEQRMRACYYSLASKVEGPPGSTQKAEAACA

[26] = target: Receptor-type tyrosine-protein kinase FLT3 (Homo sapiens) (UniProt P36888); conditions: Compound concentration 1000.0 nM
[27] = target: cGMP-dependent protein kinase 2 (Homo sapiens) (UniProt Q13237); conditions: Compound concentration 1000.0 nM
[28] = target: RAC-alpha serine/threonine-protein kinase (Homo sapiens) (UniProt P31749); conditions: Compound concentration 1000.0 nM
[29] = target: Mitogen-activated protein kinase kinase kinase 14 (Homo sapiens) (UniProt Q99558); conditions: Compound concentration 1000.0 nM
[30] = target: Vascular endothelial growth factor receptor 3 (Homo sapiens) (UniProt P35916); conditions: Compound concentration 1000.0 nM
Sequence of Vascular endothelial growth factor receptor 3 (Homo sapiens) (P35916 whole entry): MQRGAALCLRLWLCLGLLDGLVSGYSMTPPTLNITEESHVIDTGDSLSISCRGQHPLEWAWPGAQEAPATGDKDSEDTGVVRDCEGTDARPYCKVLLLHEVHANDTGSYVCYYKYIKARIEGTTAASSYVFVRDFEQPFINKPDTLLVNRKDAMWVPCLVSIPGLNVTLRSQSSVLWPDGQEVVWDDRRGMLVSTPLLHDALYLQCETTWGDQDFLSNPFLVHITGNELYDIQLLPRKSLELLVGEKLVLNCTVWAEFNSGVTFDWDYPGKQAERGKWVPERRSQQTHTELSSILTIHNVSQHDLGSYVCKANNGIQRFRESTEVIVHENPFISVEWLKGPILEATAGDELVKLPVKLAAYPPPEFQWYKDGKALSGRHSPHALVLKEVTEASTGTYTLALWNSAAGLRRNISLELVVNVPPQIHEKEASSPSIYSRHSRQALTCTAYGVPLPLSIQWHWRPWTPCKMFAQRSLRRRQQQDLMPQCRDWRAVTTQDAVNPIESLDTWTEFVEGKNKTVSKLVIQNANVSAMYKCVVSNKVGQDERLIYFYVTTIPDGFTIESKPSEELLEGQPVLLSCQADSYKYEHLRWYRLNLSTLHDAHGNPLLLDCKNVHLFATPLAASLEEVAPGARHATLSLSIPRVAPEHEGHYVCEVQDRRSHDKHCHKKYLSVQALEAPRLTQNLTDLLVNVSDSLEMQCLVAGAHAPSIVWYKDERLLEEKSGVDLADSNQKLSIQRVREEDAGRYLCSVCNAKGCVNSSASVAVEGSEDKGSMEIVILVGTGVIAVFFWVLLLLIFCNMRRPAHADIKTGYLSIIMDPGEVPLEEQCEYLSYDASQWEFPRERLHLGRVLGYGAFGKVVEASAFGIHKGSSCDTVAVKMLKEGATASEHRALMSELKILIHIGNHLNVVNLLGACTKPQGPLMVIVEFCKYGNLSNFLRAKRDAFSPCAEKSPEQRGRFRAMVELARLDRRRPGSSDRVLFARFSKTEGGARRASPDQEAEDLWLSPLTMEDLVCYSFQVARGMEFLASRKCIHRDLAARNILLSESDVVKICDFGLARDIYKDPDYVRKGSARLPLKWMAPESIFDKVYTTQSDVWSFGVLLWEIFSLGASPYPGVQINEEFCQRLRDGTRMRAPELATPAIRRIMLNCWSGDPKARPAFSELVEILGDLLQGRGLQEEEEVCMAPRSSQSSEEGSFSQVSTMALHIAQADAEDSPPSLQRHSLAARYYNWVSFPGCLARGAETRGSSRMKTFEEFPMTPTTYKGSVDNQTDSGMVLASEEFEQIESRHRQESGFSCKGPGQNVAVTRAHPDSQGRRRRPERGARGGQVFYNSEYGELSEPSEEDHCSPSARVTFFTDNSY

[31] = target: Serine/threonine-protein kinase Nek2 (Homo sapiens) (UniProt P51955); conditions: Compound concentration 1000.0 nM
[32] = target: Protein kinase C theta type (Homo sapiens) (UniProt Q04759); conditions: Compound concentration 1000.0 nM
[33] = target: Tyrosine-protein kinase Fgr (Homo sapiens) (UniProt P09769); conditions: Compound concentration 1000.0 nM
[34] = target: Tyrosine-protein kinase receptor Tie-1 (Homo sapiens) (UniProt P35590); conditions: Compound concentration 1000.0 nM
[35] = target: Dual specificity testis-specific protein kinase 1 (Homo sapiens) (UniProt Q15569); conditions: Compound concentration 1000.0 nM
[36] = target: Dual specificity protein kinase CLK3 (Homo sapiens) (UniProt P49761); conditions: Compound concentration 1000.0 nM
Sequence of Dual specificity protein kinase CLK3 (Homo sapiens) (P49761 whole entry, looked up): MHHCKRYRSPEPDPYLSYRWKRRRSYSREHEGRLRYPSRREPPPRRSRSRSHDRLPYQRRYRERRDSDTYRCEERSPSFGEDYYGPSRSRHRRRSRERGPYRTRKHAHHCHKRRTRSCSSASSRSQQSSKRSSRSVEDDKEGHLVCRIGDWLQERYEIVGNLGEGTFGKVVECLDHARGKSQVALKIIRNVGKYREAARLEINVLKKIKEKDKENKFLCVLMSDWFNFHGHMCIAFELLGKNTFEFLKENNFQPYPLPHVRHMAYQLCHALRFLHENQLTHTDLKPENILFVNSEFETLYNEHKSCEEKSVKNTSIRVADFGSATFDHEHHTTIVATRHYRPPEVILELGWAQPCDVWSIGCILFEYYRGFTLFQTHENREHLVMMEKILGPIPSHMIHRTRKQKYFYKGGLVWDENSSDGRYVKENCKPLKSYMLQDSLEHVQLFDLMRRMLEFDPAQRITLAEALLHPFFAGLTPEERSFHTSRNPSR

[37] = target: Calcium/calmodulin-dependent protein kinase type II subunit delta (Homo sapiens) (UniProt Q13557); conditions: Compound concentration 1000.0 nM
[38] = target: cAMP-dependent protein kinase catalytic subunit alpha (Homo sapiens) (UniProt P17612); conditions: Compound concentration 1000.0 nM
[39] = target: Phosphatidylinositol 5-phosphate 4-kinase type-2 gamma (Homo sapiens) (UniProt Q8TBX8); conditions: Compound concentration 1000.0 nM
[40] = target: Interleukin-1 receptor-associated kinase 1 (Homo sapiens) (UniProt P51617); conditions: Compound concentration 1000.0 nM
[41] = target: D(4) dopamine receptor (Homo sapiens) (UniProt P21917); conditions: Compound concentration 10.0 uM
[42] = target: Receptor-interacting serine/threonine-protein kinase 2 (Homo sapiens) (UniProt O43353); conditions: Compound concentration 1000.0 nM
[43] = target: Cyclin-dependent kinase 2 homolog (Plasmodium falciparum (isolate 3D7)) (UniProt P61075); conditions: Compound concentration 1000.0 nM
Sequence of Cyclin-dependent kinase 2 homolog (Plasmodium falciparum (isolate 3D7)) (P61075 whole entry): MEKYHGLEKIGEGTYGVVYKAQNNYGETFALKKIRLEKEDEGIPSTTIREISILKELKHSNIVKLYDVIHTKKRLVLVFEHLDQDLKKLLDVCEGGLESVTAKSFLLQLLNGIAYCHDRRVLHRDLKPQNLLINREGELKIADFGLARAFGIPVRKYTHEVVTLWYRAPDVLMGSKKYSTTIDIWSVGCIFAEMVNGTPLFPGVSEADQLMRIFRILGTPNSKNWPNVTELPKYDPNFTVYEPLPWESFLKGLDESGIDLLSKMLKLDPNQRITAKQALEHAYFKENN

Sequence of Serine/threonine-protein kinase MAK (Homo sapiens) (P20794 whole entry): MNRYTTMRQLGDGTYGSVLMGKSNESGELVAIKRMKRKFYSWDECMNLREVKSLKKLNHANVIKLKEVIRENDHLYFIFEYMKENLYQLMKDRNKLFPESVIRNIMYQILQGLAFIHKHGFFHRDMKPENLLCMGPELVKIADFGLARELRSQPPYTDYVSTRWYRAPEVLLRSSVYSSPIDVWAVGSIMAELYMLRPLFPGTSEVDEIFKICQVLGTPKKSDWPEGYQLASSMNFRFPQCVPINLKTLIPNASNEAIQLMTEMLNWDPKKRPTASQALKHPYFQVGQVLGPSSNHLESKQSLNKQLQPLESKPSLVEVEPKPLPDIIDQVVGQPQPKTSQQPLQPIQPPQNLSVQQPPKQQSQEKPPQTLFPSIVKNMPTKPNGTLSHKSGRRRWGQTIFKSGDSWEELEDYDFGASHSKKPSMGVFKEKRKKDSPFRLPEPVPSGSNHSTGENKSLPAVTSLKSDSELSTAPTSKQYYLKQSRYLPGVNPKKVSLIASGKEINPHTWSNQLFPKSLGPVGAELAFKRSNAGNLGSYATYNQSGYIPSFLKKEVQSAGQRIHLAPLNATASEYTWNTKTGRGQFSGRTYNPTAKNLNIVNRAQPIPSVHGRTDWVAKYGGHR

What does the source list for `O=C(Nc1cccnn1)N1CCC(=Cc2cccc(Oc3ccc(C(F)(F)F)cn3)c2)CC1`?
residual activity [1]: 100%; residual activity [2]: 100%; residual activity [3]: 83%; residual activity [4]: 98%; residual activity [5]: 100%; residual activity [6]: 100%; residual activity [7]: 97%; inhibition [8]: 16.5%; residual activity [9]: 100%; residual activity [10]: 100%; residual activity [11]: 68%; residual activity [12]: 100%; residual activity [13]: 84%; inhibition [14]: 55.7%; residual activity [15]: 100%; inhibition [16]: 0.4%; residual activity [17]: 100%; residual activity [18]: 82%; residual activity [19]: 78%; residual activity [20]: 100%; residual activity [21]: 100%; residual activity [22]: 92%; residual activity [23]: 100%; inhibition [24]: 7.35%; residual activity [25]: 100%; residual activity [26]: 97%; residual activity [27]: 100%; residual activity [28]: 93%; residual activity [29]: 100%; residual activity [30]: 80%; residual activity [31]: 100%; residual activity [32]: 67%; residual activity [33]: 63%; residual activity [34]: 100%; residual activity [35]: 91%; residual activity [36]: 100%; residual activity [37]: 82%; residual activity [38]: 100%; residual activity [39]: 75%; residual activity [40]: 100%; inhibition [41]: -6.93%; residual activity [42]: 94%; residual activity [43]: 100%

Which residual activity [1] does the source give for `O=C(Nc1cccnn1)N1CC(C/C=C/c2cncc(Oc3ccc(C(F)(F)F)cn3)n2)C1` here?
The residual activity was 89%.

And the residual activity [2]?
The residual activity was 100%.

What about the residual activity [3] of the same compound?
Its residual activity is 100%.

What about the residual activity [4] of the same compound?
Its residual activity is 95%.

What about the residual activity [5] of the same compound?
The residual activity was 100%.

What about the residual activity [6] of the same compound?
Its residual activity is 72%.

And the residual activity [7]?
The residual activity was 100%.

What about the inhibition [8] of the same compound?
Its inhibition is 1.97%.

And the residual activity [9]?
Its residual activity is 75%.

What about the residual activity [10] of the same compound?
Its residual activity is 100%.

And the residual activity [11]?
The residual activity was 87%.

What about the residual activity [12] of the same compound?
The residual activity was 88%.

What about the residual activity [13] of the same compound?
The residual activity was 99%.

And the inhibition [14]?
Its inhibition is 2.28%.

What about the residual activity [15] of the same compound?
Its residual activity is 100%.

What about the inhibition [16] of the same compound?
The inhibition was 0.27%.

And the residual activity [17]?
Its residual activity is 95%.

What about the residual activity [18] of the same compound?
The residual activity was 100%.

And the residual activity [19]?
Its residual activity is 100%.

And the residual activity [20]?
The residual activity was 100%.

And the residual activity [21]?
The residual activity was 75%.

And the residual activity [22]?
Its residual activity is 100%.

What about the residual activity [23] of the same compound?
Its residual activity is 74%.

And the inhibition [24]?
The inhibition was 17.3%.

And the residual activity [25]?
The residual activity was 90%.

What about the residual activity [26] of the same compound?
Its residual activity is 86%.

And the residual activity [27]?
The residual activity was 91%.

And the residual activity [28]?
Its residual activity is 100%.

What about the residual activity [29] of the same compound?
The residual activity was 77%.

What about the residual activity [30] of the same compound?
Its residual activity is 100%.

What about the residual activity [31] of the same compound?
The residual activity was 100%.

And the residual activity [32]?
Its residual activity is 100%.

What about the residual activity [33] of the same compound?
The residual activity was 100%.

What about the residual activity [34] of the same compound?
Its residual activity is 100%.

And the residual activity [35]?
The residual activity was 100%.

What about the residual activity [36] of the same compound?
Its residual activity is 100%.

And the residual activity [37]?
The residual activity was 100%.

And the residual activity [38]?
Its residual activity is 93%.

And the residual activity [39]?
Its residual activity is 100%.

And the residual activity [40]?
The residual activity was 66%.

And the inhibition [41]?
Its inhibition is 12.3%.

What about the residual activity [42] of the same compound?
Its residual activity is 93%.

And the residual activity [43]?
Its residual activity is 93%.
